# From publication PMC12748958 (Nature Communications, 2025)
# Target: T1, PsiR-M2 (Agrobacterium fabrum, UniProt A9CH24, R109G/V134A)
# T1 sequence (A9CH24 1-359 R109G/V134A): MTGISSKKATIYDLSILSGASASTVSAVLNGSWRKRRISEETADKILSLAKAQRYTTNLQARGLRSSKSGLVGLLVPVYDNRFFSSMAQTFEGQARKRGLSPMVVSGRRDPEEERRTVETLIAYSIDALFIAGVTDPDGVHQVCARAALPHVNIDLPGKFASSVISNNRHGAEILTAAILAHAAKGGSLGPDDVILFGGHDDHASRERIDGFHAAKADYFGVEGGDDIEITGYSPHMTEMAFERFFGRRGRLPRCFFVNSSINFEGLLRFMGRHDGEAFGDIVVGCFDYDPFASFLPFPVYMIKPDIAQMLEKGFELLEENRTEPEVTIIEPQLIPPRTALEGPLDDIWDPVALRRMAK
# Assay: microscale thermophoresis
# Type: binding
smiles,measurement,value
O=C(CO)[C@H](O)[C@H](O)[C@H](O)CO [D-allulose],microscale thermophoresis (MST) on purified protein,"After purifying PsiR-WT, M2, and M4 from E. coli BL21(DE3) via His-tag affinity chromatography"
